Structures can show the parent of a compound that is named as a salt.
Test: TAF stability in excipients (chromatographic purity by HPLC)
Assay type: physicochemical
Settings: excess TAF dissolved in excipient at 37° C., quantified by HPLC
Experimental: Excipients on the FDA GRAS list of acceptable compounds were evaluated for TAF stability and short-duration TAF release. Devices containing TAF in combination with selected GRAS excipients were evaluated in prototype devices 60 days, presented in FIG. 8. […] Tocopherol was not chosen because of the high release rate of TAF near 3.5 mg/day.

SMILES: CC(C)OC(=O)[C@H](C)N[P@](=O)(CO[C@H](C)Cn1cnc2c(N)ncnc21)Oc1ccccc1 [TAF std., Tenofovir Alafenamide Fumarate]
- Chromatographic Purity: 99.88%
